Laboratory results taken from patent US11236055B2 (Venenum Biodesign, LLC, priority 2016, dated 2022).

Tests used:
[1] = tested on: Mouse STC-1 cells; assay: STC-1 GLP-1 assay; type: cell-based; conditions: GLP-1 secretion, 2 h, coded A-C, read-out: Mouse STC-1 HTRF GLP-1 Activity (EC50)
Experimental: We evaluated Compounds of the present invention for their ability to induce GLP-1 production in mouse intestinal neuroendocrine tumor cells. Mouse STC-1 cells were cultured and maintained in high glucose DMEM (Sigma #5796) supplemented with 15% horse serum, 5% Fetal Bovine Serum (FBS), 1% penicillin/streptomycin, and 2 mM L-alanine L-glutamine (GlutaMax). Two days prior to analysis of GLP-1 secretion cells were harvested using Accutase (Sigma), spun down then resuspended in high glucose DMEM media containing 2 mM L-alanine L-glutamine (GlutaMax), 10% charcoal-dextran stripped FBS, and 50 μg/mL Gentamicin, at a density of 100,000 cells/mL. 100 μL of cell suspension was added to each well of a 96-well Poly-D-Lysine coated culture plate (Sigma; cat #2382493) and was incubated at 37° C. with 5% CO2.
Compounds were initially diluted in 100% DMSO (12-point serial dilution by half logs) in a 96-well plate and then were further diluted 1:500 in Hanks' Balanced Salt Solution (HBSS) containing protease inhibitor cocktail, DPP-IV inhibitor, and 0.1% fatty acid free bovine serum albumin. On the day of the experiment cells were washed once with HBSS. After wash, 100 μL of test compound was added to each well. The plate was incubated at 37° C. with 5% CO2 for 2 h. Supernatants were collected and GLP-1 secretion was measured using the Cisbio™ Active GLP-1 HTRF Assay Kit (Cisbio). Briefly, Anti-GLP-1-d2 conjugate and Anti-GLP-1 Terbium Cryptate conjugate stock solutions were prepared as per kit instructions. The two solutions were pre-mixed and 10 μL were transferred to a 384-well low volume plate (Greiner; cat #784075). 10 μL of collected supernatants were added to wells already containing the conjugate solution. The plate was covered and incubated at room temperature overnight. The plate was read on an Envision™ plate reader (Perkin Elmer).
In Table 34, EC50 values obtained from the STC-1 GLP-1 production assay for compounds of the present invention are summarized.

[2] = biological target: T1, mouse TGR5 receptor (Mus musculus, UniProt Q80SS6); assay: Mouse TGR5 cAMP production assay (HTRF, Cisbio cAMP HiRange); type: cell-based; conditions: HEK293-EBNA cells overexpressing mouse TGR5, HTRF cAMP HiRange; coded A-D
T1 construct: expressed in transfected cells; host or cells: HEK293-EBNA (293 c18, ATCC CRL10852), Hygromycin B selection
T1 sequence (Q80SS6 1-329): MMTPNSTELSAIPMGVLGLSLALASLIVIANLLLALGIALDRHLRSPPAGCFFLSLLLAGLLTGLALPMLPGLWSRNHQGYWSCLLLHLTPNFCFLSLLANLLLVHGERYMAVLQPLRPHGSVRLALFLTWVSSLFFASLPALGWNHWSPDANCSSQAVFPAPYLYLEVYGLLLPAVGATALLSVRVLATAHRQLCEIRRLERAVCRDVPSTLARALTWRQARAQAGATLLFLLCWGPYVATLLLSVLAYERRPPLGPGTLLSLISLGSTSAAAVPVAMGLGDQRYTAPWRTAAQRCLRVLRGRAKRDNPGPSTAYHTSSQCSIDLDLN
How it was run: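 cAMP read by HTRF competition after 1 h room-temperature compound exposure of mouse TGR5-overexpressing HEK293-EBNA cells. Cells were suspended in serum-free DMEM containing 500 μM IBMX; compounds ran as 12-point half-log dilutions in duplicate; EC50 derived.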

SMILES | EC50 [1] [nM] | EC50 [2] [nM]
CCc1cnccc1-c1cccc(C2CN(C(=O)CCC(=O)O)CCN2S(=O)(=O)c2cccc(Cl)c2C)c1 (racemic) [Compound 46, (+/−) 4-(4-((3-Chloro-2-methylphenyl)sulfonyl)-3-(3-(3-ethylpyridin-4-yl)phenyl)piperazin-1-yl)-4-oxobutanoic acid] | 100 to 999 | < 100
Cc1cnccc1-c1cccc([C@H](C)N(CCCC(=O)NCCNS(=O)(=O)CCC(=O)O)S(=O)(=O)c2cccc(Cl)c2C)c1 [Compound 26AB] | 100 to 999 | < 100
CCc1cnccc1-c1cccc(C(C)(C)N(CCCC(=O)NCCS(=O)(=O)O)S(=O)(=O)c2ccccc2C(F)(F)F)c1 [Compound 20, 2-(4-(N-(2-(3-(3-ethylpyridin-4-yl)phenyl)propan-2-yl)-2-(trifluoromethyl)-phenylsulfonamido)butanamido)ethanesulfonic acid] | < 100 | < 100
Cc1cnccc1-c1cccc(C(C)(C)N(CCCC(=O)NCCS(=O)(=O)NCC(=O)O)S(=O)(=O)c2cccc(Cl)c2C)c1 [Compound 20AW, (4-(3-chloro-2-methyl-N-(2-(3-(3-methylpyridin-4-yl)phenyl)propan-2-yl)phenylsulfonamido)-N-butanamidoethylsulfonamido)acetic acid] | – | < 100
Cc1cnccc1-c1cccc([C@H](C)N(CCCC(=O)NCCNS(=O)(=O)CC(=O)O)S(=O)(=O)c2cccc(Cl)c2C)c1 [Compound 26AA] | 100 to 999 | < 100
Cc1cnccc1-c1cccc([C@H](C)N(CCCCC(=O)NCCS(=O)(=O)NCCC(=O)O)S(=O)(=O)c2ccccc2C(F)(F)F)c1 [Compound 20BM] | 1000 to 30000 | < 100
Cc1cnccc1-c1cccc([C@H](C)N(CCCC(=O)NCCS(=O)(=O)NCCC(=O)O)S(=O)(=O)c2cccc(Cl)c2C)c1 [Compound 21AL] | 100 to 999 | < 100
CCc1cnccc1-c1cccc([C@H](C)N(CCCC(=O)NCCCS(=O)(=O)O)S(=O)(=O)c2cccc(Cl)c2C)c1 [Compound 20AM, (S)-3-(4-(3-chloro-N-(1-(3-(3-ethylpyridin-4-yl)phenyl)ethyl)-2-methylphenylsulfonamido)butanamido)propane-1-sulfonic acid] | 100 to 999 | < 100
Cc1cnccc1-c1cccc(C(C)(C)N(CCCNC(=O)NCCS(=O)(=O)O)S(=O)(=O)c2cccc(Cl)c2C)c1 [Compound 29AA, 2-(3-(3-((3-Chloro-2-methyl-N-(2-(3-(3-methylpyridin-4-yl)phenyl)propan-2-yl)phenyl)sulfonamide)propyl)ureido)ethane-1-sulfonic acid] | 100 to 999 | < 100
CCc1cnccc1-c1cccc([C@H](C)N(CCCCNC(=O)NCS(=O)(=O)O)S(=O)(=O)c2ccccc2C(F)(F)F)c1 [Compound 28AH, (S)-(3-(4-(N-(1-(3-(3-ethylpyridin-4-yl)phenyl)ethyl)-2-(trifluoromethyl)phenylsulfonamido)butyl)ureido)methanesulfonic acid] | 100 to 999 | < 100
Cc1cnccc1-c1cccc(C(C)(C)N(CCCC(=O)NCC(=O)O)S(=O)(=O)c2cccc(Cl)c2C)c1 [Compound 21AB, 2-(4-(3-chloro-2-methyl-N-(2-(3-(3-methylpyridin-4-yl)phenyl)propan-2-yl)phenylsulfonamido)butanamido)acetic acid] | – | < 100
Cc1cnccc1-c1cccc(C(C)(C)NS(=O)(=O)c2cccc(C(F)(F)F)c2)c1 [Compound 5AA, N-(2-(3-(3-methylpyridin-4-yl)phenyl)propan-2-yl)-3-(trifluoromethyl)benzenesulfonamide] | 100 to 999 | –
Cc1cnccc1-c1cccc(C(C)(C)N(CCCC(=O)NCCCS(=O)(=O)O)S(=O)(=O)c2cccc(Cl)c2C)c1 [Compound 20AD, 3-(4-(3-chloro-2-methyl-N-(2-(3-(3-methylpyridin-4-yl)phenyl)propan-2-yl)phenylsulfonamido)butanamido)propane-1-sulfonic acid] | – | < 100
